From patent publication US20070009438A1, “Method for diagnosing diabetes type 2 using standardized mixed meal and calculated index values” (DiaMedica Inc., priority 2003, published 2007)

Experiment: rapid insulin sensitivity test (RIST) in human volunteers before and after a standardized test meal
Type: in vivo
Settings: 50 mU/kg insulin bolus i.v., average from 5 subjects
Method: Human volunteers were fasted overnight and submitted to a RIST. A stable glycemic baseline level was established by determining three consecutive stable venous glucose concentrations obtained at 5-minute intervals. […] Arterialized venous glucose concentrations were determined at 2-minute intervals and a variable glucose infusion pump was adjusted to maintain a constant blood glucose level. After completion of the first RIST index, a standardized meal consisting of a wheat-based biscuit containing 50 grams of carbohydrate was consumed within a 10-minute period. Venous glucose measurements were determined at 5-minute intervals until a new stable baseline was obtained whereupon a second RIST was carried out.
In FIG. 6, the difference between the results is plotted and is attributed to HISS action. […] Thus, the test meal provided a sufficient feeding signal to allow HISS release.

For insulin, the “RIST index (glucose disposal in response to the insulin bolus)” value (human subjects after test meal (wheat-based biscuit, 50 grams of carbohydrate)) was 502 mg/kg and the “RIST index (glucose disposal in response to the insulin bolus)” value (human subjects fasted overnight) was 180 mg/kg.
